Test results published in PubChem BioAssay AID328 (DTP/NCI, 2004).
Where “and” joins values, the source holds several entries; their conditions need not be identical. Equal values may be shown once. Inconclusive results and toxic doses are left out.

System: BDF1 mice, P388 leukemia ip, median survival T/C
Experiment: NCI In Vivo Anticancer Drug Screen. Data for tumor model P388 Leukemia (intraperitoneal) in B6D2F1 (BDF1) mice
Conditions: endpoint: median survival time, higher = longer survival
In short: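 Compound-treated tumour-bearing mice were compared with vehicle-treated controls. Survival was recorded, and the value is the treated-group measurement divided by the control-group measurement (T/C).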

[1] = dose: 100.0 mg/kg/injection, schedule: Q01DX009 (ip), vehicle: saline with Tween-80
[2] = dose: 200.0 mg/kg/injection, schedule: Q01DX009 (ip), vehicle: saline with Tween-80
[3] = dose: 12.5 mg/kg/injection, schedule: Q01DX009 (ip), vehicle: saline
[4] = dose: 25.0 mg/kg/injection, schedule: Q01DX009 (ip), vehicle: saline
[5] = dose: 50.0 mg/kg/injection, schedule: Q01DX009 (ip), vehicle: saline with Tween-80
[6] = dose: 6.25 mg/kg/injection, schedule: Q01DX009 (ip), vehicle: saline
[7] = dose: 100.0 mg/kg/injection, schedule: Q04DX003 (ip), vehicle: saline with Tween-80

## C=CCCCCCCCCC(=O)NCc1cccnc1
[1]
  T/C: 86 % of control
[2]
  T/C: 95 % of control
dose: 400.0 mg/kg/injection, schedule: Q01DX009 (ip), vehicle: saline with Tween-80
  T/C: 100 % of control

## CC(CCCSC(=N)N)SC(=N)N (stereo not drawn)
[3]
  T/C: 103 % of control
[4]
  T/C: 96 % of control and 105 % of control
dose: 50.0 mg/kg/injection, schedule: Q01DX009 (ip), vehicle: saline
  T/C: 97 % of control and 122 % of control
dose: 100.0 mg/kg/injection, schedule: Q01DX009 (ip), vehicle: saline
  T/C: 102 % of control and 103 % of control

## O=C1c2c(Cl)c(Cl)c(Cl)c(Cl)c2C(=O)N1c1ccccc1-c1ccccc1
dose: 175.0 mg/kg/injection, schedule: Q01DX009 (ip), vehicle: saline with Tween-80
  T/C: 89 % of control
dose: 350.0 mg/kg/injection, schedule: Q01DX009 (ip), vehicle: saline with Tween-80
  T/C: 94 % of control

## NCC(=O)O.[Cl][Ga]([Cl])[Cl]
[4]
  T/C: 120 % of control

## OCCC1=CCC1
[5]
  T/C: 101 % of control
[1]
  T/C: 101 % of control
[2]
  T/C: 111 % of control

## COc1cc2c(cc1OC)C(=O)C(c1ccc3c(c1)OCO3)CC2 (stereo not drawn)
dose: 12.5 mg/kg/injection, schedule: Q01DX009 (ip), vehicle: water
  T/C: 98 % of control
dose: 12.5 mg/kg/injection, schedule: Q04DX003 (ip), vehicle: water
  T/C: 95 % of control
dose: 25.0 mg/kg/injection, schedule: Q01DX009 (ip), vehicle: water
  T/C: 93 % of control
dose: 25.0 mg/kg/injection, schedule: Q04DX003 (ip), vehicle: water
  T/C: 101 % of control
dose: 50.0 mg/kg/injection, schedule: Q01DX009 (ip), vehicle: water
  T/C: 88 % of control and 92 % of control
dose: 50.0 mg/kg/injection, schedule: Q04DX003 (ip), vehicle: water
  T/C: 100 % of control
dose: 75.0 mg/kg/injection, schedule: Q01DX009 (ip), vehicle: water
  T/C: 93 % of control
dose: 100.0 mg/kg/injection, schedule: Q01DX009 (ip), vehicle: water
  T/C: 87 % of control
dose: 100.0 mg/kg/injection, schedule: Q04DX003 (ip), vehicle: water
  T/C: 88 % of control
dose: 200.0 mg/kg/injection, schedule: Q01DX009 (ip), vehicle: water
  T/C: 91 % of control

## CC(=N\O)/C(C)=N/O.CC(=N\O)/C(C)=N/O.O.[CH3-].[Co]
[6]
  T/C: 100 % of control
[3]
  T/C: 97 % of control

## CC1=C(Br)C(=O)C(c2c(C)c(Br)c(C)c([N+](=O)[O-])c2C)=C(Br)C1=O
dose: 100.0 mg/kg/injection, schedule: Q01DX001 (ip), vehicle: Klucel (hydroxypropylcellulose) (HPC)
  T/C: 100 % of control
dose: 200.0 mg/kg/injection, schedule: Q01DX001 (ip), vehicle: Klucel (hydroxypropylcellulose) (HPC)
  T/C: 110 % of control
dose: 400.0 mg/kg/injection, schedule: Q01DX001 (ip), vehicle: Klucel (hydroxypropylcellulose) (HPC)
  T/C: 100 % of control

## c1ccc(CC2NCCc3ccccc32)cc1 (stereo not drawn)
dose: 25.0 mg/kg/injection, schedule: Q01DX009 (ip), vehicle: saline with Tween-80
  T/C: 96 % of control
dose: 25.0 mg/kg/injection, schedule: Q04DX003 (ip), vehicle: saline with Tween-80
  T/C: 115 % of control
[5]
  T/C: 111 % of control
dose: 50.0 mg/kg/injection, schedule: Q04DX003 (ip), vehicle: saline with Tween-80
  T/C: 105 % of control
[1]
  T/C: 107 % of control
[7]
  T/C: 105 % of control

## CN=S(=O)(OCCOCCOS(=O)(=NC)c1ccc(C)cc1)c1ccc(C)cc1 (stereo not drawn)
[5]
  T/C: 111 % of control
[1]
  T/C: 108 % of control
[2]
  T/C: 114 % of control

## CCN(CC)CCCCCCNc1cc(OC)c(F)c2c(C)ccnc12
dose: 3.13 mg/kg/injection, schedule: Q01DX009 (ip), vehicle: saline
  T/C: 109 % of control
[6]
  T/C: 107 % of control
[3]
  T/C: 116 % of control

## CC(=O)CC(C)=O.CC(=O)CC(C)=O.[NH-]C1CCCCC1.[NH-]C1CCCCC1.[Ni+2]
dose: 19.0 mg/kg/injection, schedule: Q04DX003 (ip), vehicle: saline with Tween-80
  T/C: 104 % of control
dose: 20.0 mg/kg/injection, schedule: Q04DX003 (ip), vehicle: saline
  T/C: 100 % of control
dose: 37.5 mg/kg/injection, schedule: Q04DX003 (ip), vehicle: saline with Tween-80
  T/C: 118 % of control
dose: 40.0 mg/kg/injection, schedule: Q04DX003 (ip), vehicle: saline
  T/C: 112 % of control

## O=C1CCC(=O)N1CO
dose: 25.0 mg/kg/injection, schedule: Q04DX003 (ip), vehicle: saline
  T/C: 109 % of control
dose: 44.0 mg/kg/injection, schedule: Q04DX003 (ip), vehicle: saline
  T/C: 95 % of control
dose: 50.0 mg/kg/injection, schedule: Q04DX003 (ip), vehicle: saline
  T/C: 104 % of control
dose: 66.0 mg/kg/injection, schedule: Q04DX003 (ip), vehicle: saline
  T/C: 109 % of control
dose: 100.0 mg/kg/injection, schedule: Q04DX003 (ip), vehicle: saline
  T/C: 118 % of control
dose: 300.0 mg/kg/injection, schedule: Q04DX003 (ip), vehicle: saline
  T/C: 159 % of control

## COC(=O)c1cc2ccccc2o1
[7]
  T/C: 95 % of control
dose: 200.0 mg/kg/injection, schedule: Q04DX003 (ip), vehicle: saline with Tween-80
  T/C: 95 % of control
dose: 400.0 mg/kg/injection, schedule: Q04DX003 (ip), vehicle: saline with Tween-80
  T/C: 91 % of control
